Key:
Assay in all cases: relative viability (nuclei count vs DMSO), 5 days (fraction); higher = more cells survive
[1] = compound: O[C@@H](COc1cccc2ncccc12)CN1CCN([C@@H]2c3ccccc3[C@@H]3[C@H](c4ccccc42)C3(F)F)CC1 [Zosuquidar] + COc1cc2c(Oc3ccc(NC(=O)C4(C(=O)Nc5ccc(F)cc5)CC4)cc3F)ccnc2cc1OCCCN1CCOCC1 [Foretinib] (partner 0.25 µM)
In short: (§1)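 Lung cancer cell lines in 1536-well plates got either a single drug or a fixed anchor-drug dose together with five library-drug doses (not always all listed) in √10 steps, by pin tool, on the day after seeding. Nuclei were counted after 5 days, and relative viability is the treated-to-vehicle ratio of nuclei counts. Values are medians of duplicate plates.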

[2] = compound: COc1cc2nccc(Oc3ccc(NC(=O)C4(C(=O)Nc5ccc(F)cc5)CC4)cc3)c2cc1OC [Cabozantinib] + Nc1ncn([C@H]2C[C@H](O)[C@@H](CO)O2)c(=O)n1 [Decitabine] (partner 2 µM)
In short: as §1

[3] = compound: C1=CC(=CC=C1NC(=S)NNC2=C(C=C(C=C2[N+](=O)[O-])C(F)(F)F)[N+](=O)[O-])F [Kobe2602] + COc1cccc2cc(-c3nc([C@H]4CC[C@H](C(=O)O)CC4)n4ncnc(N)c34)[nH]c12 [OSI-027] (partner 0.5 µM)
In short: as §1

[4] = compound: C1=CC(=CC=C1NC(=S)NNC2=C(C=C(C=C2[N+](=O)[O-])C(F)(F)F)[N+](=O)[O-])F [Kobe2602] + Nc1ncn([C@H]2C[C@H](O)[C@@H](CO)O2)c(=O)n1 [Decitabine] (partner 2 µM)
In short: as §1

Cell Line | relative viability ([1]; first compound 0.01 µM) | relative viability ([1]; first compound 0.03162 µM) | relative viability ([1]; first compound 0.1 µM) | relative viability ([1]; first compound 0.3162 µM) | relative viability ([1]; first compound 1 µM) | relative viability ([2]; first compound 0.02 µM) | relative viability ([2]; first compound 0.06325 µM) | relative viability ([2]; first compound 0.2 µM) | relative viability ([2]; first compound 0.6325 µM) | relative viability ([2]; first compound 2 µM) | relative viability ([3]; first compound 0.2 µM) | relative viability ([3]; first compound 0.6325 µM) | relative viability ([3]; first compound 2 µM) | relative viability ([3]; first compound 20 µM) | relative viability ([4]; first compound 0.2 µM) | relative viability ([4]; first compound 0.6325 µM) | relative viability ([4]; first compound 2 µM) | relative viability ([4]; first compound 6.325 µM) | relative viability ([4]; first compound 20 µM) | relative viability ([3]; first compound 6.325 µM)
201T | 1.16 | 1.17 | 0.935 | 1.04 | 1.19 | 0.874 | 0.945 | 0.839 | 0.836 | 0.826 | 0.815 | 0.802 | 0.764 | 0.603 | 0.89 | 0.892 | 0.872 | 0.949 | 0.876 | –
A549 | 0.879 | 0.84 | 0.906 | 0.983 | 0.956 | 0.298 | 0.26 | 0.263 | 0.313 | 0.306 | – | – | – | – | 0.228 | 0.266 | 0.414 | 0.251 | 0.247 | –
A-427 | 1.1 | 0.983 | 0.96 | 1.18 | 1.06 | 0.569 | 0.589 | 0.57 | 0.621 | 0.596 | 0.508 | 0.583 | 0.399 | 0.476 | 0.589 | 0.628 | 0.51 | 0.539 | 0.616 | 0.446
ABC-1 | 0.926 | 1.03 | 1.17 | 1.32 | 0.95 | – | 0.846 | 1.05 | 1.05 | 0.982 | 0.582 | 0.501 | – | 0.628 | 1.11 | 1.31 | 1.05 | 1.18 | 1.16 | 0.585
BEN | 0.724 | 0.55 | 0.592 | 0.61 | 0.524 | 0.63 | 0.815 | 0.7 | 0.733 | 0.566 | 0.295 | 0.293 | 0.326 | 0.319 | 0.707 | 0.734 | 0.709 | 0.711 | 0.92 | 0.282
CAL-12T | 1.12 | 1.18 | 0.978 | 1.18 | 1.02 | – | – | – | – | – | 0.647 | 0.583 | 0.572 | 0.557 | – | – | – | – | – | 0.636
COR-L23 | 0.994 | 0.926 | 0.956 | 0.962 | 1.06 | 0.449 | 0.371 | 0.445 | 0.441 | 0.419 | 0.744 | 0.782 | 0.71 | 0.737 | 0.455 | 0.462 | 0.409 | 0.468 | 0.515 | 0.811
COR-L 105 | 0.865 | 0.888 | 1.29 | 1.04 | 0.899 | 0.606 | 0.764 | 0.582 | 0.735 | 0.69 | 0.631 | 0.784 | 0.623 | 0.843 | 0.706 | 0.679 | 0.473 | 0.739 | 0.602 | 0.82
Calu-6 | 0.842 | 0.916 | 1.03 | 0.942 | 0.902 | – | – | – | – | – | – | – | – | – | – | – | – | – | – | –
ChaGo-K-1 | 0.905 | 0.994 | 0.873 | 0.909 | 0.943 | 0.551 | 0.52 | 0.549 | 0.534 | 0.547 | 0.485 | 0.543 | 0.622 | 0.47 | 0.538 | 0.524 | 0.512 | 0.469 | 0.481 | 0.541
EBC-1 | 0.121 | 0.106 | 0.093 | 0.095 | 0.097 | – | – | – | – | – | – | – | – | – | – | – | – | – | – | –
EKVX | 0.692 | 0.734 | 0.589 | 0.954 | 0.748 | 0.328 | 0.386 | 0.261 | 0.336 | 0.394 | 0.684 | 0.68 | 0.707 | 0.695 | 0.337 | 0.377 | 0.349 | 0.43 | 0.385 | 0.659
EMC-BAC-2 | 0.965 | 1.11 | 0.995 | 1.06 | 0.985 | 0.998 | 0.963 | 1.04 | 0.994 | 1.13 | 0.365 | 0.512 | 0.381 | 0.421 | 0.973 | 0.961 | 0.961 | 1.01 | 0.973 | 0.413
EPLC-272H | 0.778 | 0.683 | 0.57 | 0.817 | 0.671 | 0.37 | 0.395 | 0.33 | 0.377 | 0.336 | 0.3 | 0.286 | 0.289 | 0.32 | 0.341 | 0.381 | 0.411 | 0.319 | 0.395 | 0.311
H3255 | 0.957 | 0.607 | 0.621 | 0.938 | 0.738 | 0.618 | 0.636 | – | 0.685 | 0.644 | 0.52 | 0.73 | 0.613 | 0.564 | 0.554 | 0.719 | 0.57 | 0.634 | 0.653 | 0.605
HARA | 0.857 | – | 0.883 | 0.866 | 0.999 | 0.556 | 0.653 | – | 0.812 | 0.786 | 0.59 | 0.547 | 0.407 | 0.524 | 0.566 | 0.591 | 0.5 | 0.537 | 0.499 | 0.542
HCC-15 | 1.08 | 1.08 | 0.864 | 1.04 | 1.09 | 0.562 | 0.788 | 0.683 | 0.644 | 0.536 | 0.629 | 0.723 | 0.616 | 0.637 | 0.662 | 0.649 | 0.537 | 0.627 | 0.62 | 0.676
HCC-44 | – | – | – | – | – | 0.908 | 0.996 | 0.981 | 1 | 0.987 | 0.484 | 0.597 | 0.377 | 0.683 | 0.993 | 0.894 | 0.897 | 0.896 | 0.91 | 0.586

From the supplement of paper PMC10307832
